# Test results taken from patent publication US6737409B2, “Dolastatin 10 derivatives” (Hoffmann-La Roche Inc., priority 2001, dated 2004).
# pIC50: −log10 of the molar value.
# Tested on: HCT 116
# Assay: Antiproliferative activity assay (WST-8)
# Format: cell-based
# Details: Homo sapiens, HCT-116, 96 h; incubated 4 days, WST-8; concentration of drug yielding 50% OD of the control growth; read-out: HCT 116 IC50
# Experimental: Antiproliferative activity assay was carried out as follows. A single suspension of tumor cells was inoculated to the serially diluted 96-well microtestplate. Then the testplate was incubated in the 5% CO2 ambience at 37° C. for 4 days (2-3×10^3 cells/well). The degree of cell growth in a monolayer was measured by using WST-8 (Dojindo, Japan). IC50 values of drugs against tumor cells were calculated as the concentration of drug yielding 50% OD of the control growth.
row,SMILES,pIC50
1,CCC(C)C(C(CC(=O)N1CCCC1C(CC(=O)NCCc1ccccc1)Sc1ccccc1)OC)N(C)C(=O)C(NC(=O)C(C(C)C)N(C)C)C(C)C (stereo not drawn) [N-[1-({1-sec-Butyl-2-methoxy-4-oxo-4-[2-(2-phenethylcarbamoyl-1-phenylsulfanyl-ethyl)-pyrrolidin-1-yl]-butyl}-methyl-carbamoyl)-2-methyl-propyl]-2-dimethylamino-3-methyl-butyramide],9.48
2,CCSC(CC(=O)NCCc1ccccc1)C1CCCN1C(=O)CC(OC)C(C(C)CC)N(C)C(=O)C(NC(=O)C(C(C)C)N(C)C)C(C)C (stereo not drawn) [N-[1-({1-sec-Butyl-4-[2-(1-ethylsulfanyl-2-phenethylcarbamoyl-ethyl)-pyrrolidin-1-yl]-2-methoxy-4-oxo-butyl}-methyl-carbamoyl)-2-methyl-propyl]-2-dimethylamino-3-methyl-butyramide],9.11
3,"CCC(C)C(C(CC(=O)N1CCCC1C(CC(=O)NCCc1ccc(OC)c(OC)c1)SC)OC)N(C)C(=O)C(NC(=O)C(C(C)C)N(C)C)C(C)C (stereo not drawn) [N-(1-{[1-sec-Butyl-4-(2-{2-[2-(3,4-dimethoxy-phenyl)-ethylcarbamoyl]-1-methylsulfanyl-ethyl}-pyrrolidin-1-yl)-2-methoxy-4-oxo-butyl]-methyl-carbamoyl}-2-methyl-propyl)-2-dimethylamino-3-methyl-butyramide]",9.04
4,CCNC(=O)OCCSC(CC(=O)NCCc1ccccc1)C1CCCN1C(=O)CC(OC)C(C(C)CC)N(C)C(=O)C(NC(=O)C(C(C)C)N(C)C)C(C)C (stereo not drawn) [Ethyl-carbamic acid 2-{1-[1-(4-{[2-(2-dimethylamino-3-methyl-butyrylamino)-3-methyl-butyryl]-methyl-amino}-3-methoxy-5-methyl-heptanoyl)-pyrrolidin-2-yl]-2-phenethylcarbamoyl-ethylsulfanyl}-ethyl ester],9.01
5,CCSC(CC(=O)NCCc1ccccc1)C1CCCN1C(=O)CC(OC)C(C(C)CC)N(C)C(=O)C(NC(=O)C(NC)C(C)C)C(C)C (stereo not drawn) [N-[1-({1-sec-Butyl-4-[2-(1-ethylsulfanyl-2-phenethylcarbamoyl-ethyl)-pyrrolidin-1-yl]-2-methoxy-4-oxo-butyl}-methyl-carbamoyl)-2-methyl-propyl]-3-methyl-2-methylamino-butyramide],9.30
6,CCC(C)C(C(CC(=O)N1CCCC1C(CC(=O)NCCc1ccccc1)Sc1ccc(NC(C)=O)cc1)OC)N(C)C(=O)C(NC(=O)C(C(C)C)N(C)C)C(C)C (stereo not drawn) [N-{1-[(4-{2-[1-(4-Acetylamino-phenylsulfanyl)-2-phenethylcarbamoyl-ethyl]-pyrrolidin-1-yl}-1-sec-butyl-2-methoxy-4-oxo-butyl)-methyl-carbamoyl]-2-methyl-propyl}-2-dimethylamino-3-methyl-butyramide],9.01
7,CCC(C)C(C(CC(=O)N1CCCC1C(CC(=O)NCCc1ccccc1)SCCOC(C)=O)OC)N(C)C(=O)C(NC(=O)C(C(C)C)N(C)C)C(C)C (stereo not drawn) [Acetic acid 2-{1-[1-(4-{[2-(2-dimethylamino-3-methyl-butyrylamino)-3-methyl-butyryl]-methyl-amino}-3-methoxy-5-methyl-heptanoyl)-pyrrolidin-2-yl]-2-phenethylcarbamoyl-ethylsulfanyl}-ethyl ester],9.72
8,CCCCCSC(CC(=O)NCCc1ccccc1)C1CCCN1C(=O)CC(OC)C(C(C)CC)N(C)C(=O)C(NC(=O)C(C(C)C)N(C)C)C(C)C (stereo not drawn) [N-[1-({1-sec-Butyl-2-methoxy-4-oxo-4-[2-(1-pentylsulfanyl-2-phenethylcarbamoyl-ethyl)-pyrrolidin-1-yl]-butyl}-methyl-carbamoyl)-2-methyl-propyl]-2-dimethylamino-3-methyl-butyramide],9.12

# Same assay, conditions: incubated 4 days, WST-8; concentration of drug yielding 50% OD of the control growth; read-out: HCT 116 IC50
row,SMILES,pIC50
1,CCC(C)C(C(CC(=O)N1CCCC1C(CC(=O)NCCc1ccccc1)Sc1ccccc1)OC)N(C)C(=O)C(NC(=O)C(NC)C(C)C)C(C)C (stereo not drawn) [N-[-({1-sec-Butyl-2-methoxy-4-oxo-4-[2-(2-phenethylcarbamoyl-1-phenylsulfanyl-ethyl)-pyrrolidin-1-yl]-butyl}-methyl-carbamoyl)-2-methyl-propyl]-3-methyl-2-methylamino-butyramide],9.06
